Experimental data taken from doi:10.1101/2023.12.04.569845, “Identification of 4-(6-((2-methoxyphenyl)amino)pyrazin-2-yl)benzoic acids as CSNK2A inhibitors with antiviral activity and improved selectivity over PIM3” (bioRxiv, 2023).
Read-outs that look alike come from different tables or passages of the source. Blank lines part the entries; values can stand above or below the compound they belong to.

How the values were obtained:
Test in all cases: biochemical
Set-up in all cases: Thermal shift (DSF, SYPRO Orange) Tm shift of recombinant kinase domains at 10 uM compound
TTK = target: T1, TTK (Homo sapiens, UniProt P33981)
T1 sequence (P33981 1-857): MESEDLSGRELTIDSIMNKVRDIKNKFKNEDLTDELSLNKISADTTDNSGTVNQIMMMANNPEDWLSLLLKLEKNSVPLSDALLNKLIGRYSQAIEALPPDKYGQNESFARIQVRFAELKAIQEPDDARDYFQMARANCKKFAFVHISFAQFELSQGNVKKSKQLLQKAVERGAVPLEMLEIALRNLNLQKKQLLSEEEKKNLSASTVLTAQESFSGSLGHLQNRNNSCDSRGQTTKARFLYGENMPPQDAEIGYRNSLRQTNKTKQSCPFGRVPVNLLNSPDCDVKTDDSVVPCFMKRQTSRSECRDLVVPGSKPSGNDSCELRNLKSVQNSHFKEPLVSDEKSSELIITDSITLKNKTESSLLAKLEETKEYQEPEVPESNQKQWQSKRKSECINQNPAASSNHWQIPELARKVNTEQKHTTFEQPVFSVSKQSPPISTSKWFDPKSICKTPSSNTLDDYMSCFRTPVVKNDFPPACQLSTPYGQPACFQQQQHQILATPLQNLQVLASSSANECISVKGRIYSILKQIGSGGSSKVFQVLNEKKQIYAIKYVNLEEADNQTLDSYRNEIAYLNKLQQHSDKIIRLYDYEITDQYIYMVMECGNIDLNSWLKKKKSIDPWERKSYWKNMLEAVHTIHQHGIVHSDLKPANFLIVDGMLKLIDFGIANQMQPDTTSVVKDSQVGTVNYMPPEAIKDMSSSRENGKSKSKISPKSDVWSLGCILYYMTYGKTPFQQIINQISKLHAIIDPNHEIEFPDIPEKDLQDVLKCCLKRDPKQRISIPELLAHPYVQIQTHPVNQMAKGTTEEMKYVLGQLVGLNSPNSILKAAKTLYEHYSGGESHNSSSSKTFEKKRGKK

CAMK2D = CAMK2D (Homo sapiens, UniProt Q13557)
MST1 = target: T2, MST1 (Homo sapiens, UniProt Q13043)
T2 construct: gene STK4
T2 sequence (Q13043 1-487): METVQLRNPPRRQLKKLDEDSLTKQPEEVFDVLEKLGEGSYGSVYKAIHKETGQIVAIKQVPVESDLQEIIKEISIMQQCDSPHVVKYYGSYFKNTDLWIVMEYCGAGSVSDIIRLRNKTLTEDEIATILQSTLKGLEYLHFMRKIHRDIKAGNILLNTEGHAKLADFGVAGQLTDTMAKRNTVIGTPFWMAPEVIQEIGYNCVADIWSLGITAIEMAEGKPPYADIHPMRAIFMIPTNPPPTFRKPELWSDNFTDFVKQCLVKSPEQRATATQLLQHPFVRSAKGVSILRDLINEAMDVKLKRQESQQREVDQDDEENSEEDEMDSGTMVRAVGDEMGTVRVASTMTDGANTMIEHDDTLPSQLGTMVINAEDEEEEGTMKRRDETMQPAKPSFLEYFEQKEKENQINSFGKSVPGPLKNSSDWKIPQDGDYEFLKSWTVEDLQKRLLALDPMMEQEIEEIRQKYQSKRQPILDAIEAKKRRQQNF

BMPR2 = target: T3, BMPR2 (Homo sapiens, UniProt Q13873)
T3 sequence (Q13873 1-1038): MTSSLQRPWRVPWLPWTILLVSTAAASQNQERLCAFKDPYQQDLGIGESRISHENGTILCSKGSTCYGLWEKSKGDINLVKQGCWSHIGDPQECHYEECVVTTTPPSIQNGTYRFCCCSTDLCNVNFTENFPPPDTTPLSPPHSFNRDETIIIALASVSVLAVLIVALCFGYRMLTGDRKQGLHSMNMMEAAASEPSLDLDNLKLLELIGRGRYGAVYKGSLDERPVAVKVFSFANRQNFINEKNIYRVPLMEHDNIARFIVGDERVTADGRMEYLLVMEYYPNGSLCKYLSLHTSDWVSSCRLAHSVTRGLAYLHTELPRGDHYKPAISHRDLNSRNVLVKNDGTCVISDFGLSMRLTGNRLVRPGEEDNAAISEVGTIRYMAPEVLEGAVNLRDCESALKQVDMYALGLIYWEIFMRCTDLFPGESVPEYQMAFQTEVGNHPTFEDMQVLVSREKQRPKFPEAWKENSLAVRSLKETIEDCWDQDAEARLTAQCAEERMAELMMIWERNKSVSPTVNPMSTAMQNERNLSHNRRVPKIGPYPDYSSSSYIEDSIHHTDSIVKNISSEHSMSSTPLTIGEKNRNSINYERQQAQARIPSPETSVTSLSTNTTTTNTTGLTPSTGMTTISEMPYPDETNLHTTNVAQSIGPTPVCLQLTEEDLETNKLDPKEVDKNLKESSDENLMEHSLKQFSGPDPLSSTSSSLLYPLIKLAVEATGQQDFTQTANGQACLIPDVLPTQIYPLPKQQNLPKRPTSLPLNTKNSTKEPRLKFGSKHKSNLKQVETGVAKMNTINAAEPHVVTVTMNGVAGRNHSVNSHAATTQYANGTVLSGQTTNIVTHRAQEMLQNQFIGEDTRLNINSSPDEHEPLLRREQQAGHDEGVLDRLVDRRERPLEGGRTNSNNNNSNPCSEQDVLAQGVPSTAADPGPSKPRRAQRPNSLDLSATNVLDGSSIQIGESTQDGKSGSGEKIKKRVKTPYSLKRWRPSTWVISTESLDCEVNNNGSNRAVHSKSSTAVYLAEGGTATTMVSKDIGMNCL

SRPK1 = SRPK1 (Homo sapiens, UniProt Q96SB4)
DAPK3 = DAPK3 (Homo sapiens, UniProt O43293)
MSK1_b = target: T4, MSK1_b (Homo sapiens, UniProt O75582)
T4 construct: gene RPS6KA5; second (C-terminal) kinase domain
T4 sequence (O75582 whole entry, the tested form may be a part): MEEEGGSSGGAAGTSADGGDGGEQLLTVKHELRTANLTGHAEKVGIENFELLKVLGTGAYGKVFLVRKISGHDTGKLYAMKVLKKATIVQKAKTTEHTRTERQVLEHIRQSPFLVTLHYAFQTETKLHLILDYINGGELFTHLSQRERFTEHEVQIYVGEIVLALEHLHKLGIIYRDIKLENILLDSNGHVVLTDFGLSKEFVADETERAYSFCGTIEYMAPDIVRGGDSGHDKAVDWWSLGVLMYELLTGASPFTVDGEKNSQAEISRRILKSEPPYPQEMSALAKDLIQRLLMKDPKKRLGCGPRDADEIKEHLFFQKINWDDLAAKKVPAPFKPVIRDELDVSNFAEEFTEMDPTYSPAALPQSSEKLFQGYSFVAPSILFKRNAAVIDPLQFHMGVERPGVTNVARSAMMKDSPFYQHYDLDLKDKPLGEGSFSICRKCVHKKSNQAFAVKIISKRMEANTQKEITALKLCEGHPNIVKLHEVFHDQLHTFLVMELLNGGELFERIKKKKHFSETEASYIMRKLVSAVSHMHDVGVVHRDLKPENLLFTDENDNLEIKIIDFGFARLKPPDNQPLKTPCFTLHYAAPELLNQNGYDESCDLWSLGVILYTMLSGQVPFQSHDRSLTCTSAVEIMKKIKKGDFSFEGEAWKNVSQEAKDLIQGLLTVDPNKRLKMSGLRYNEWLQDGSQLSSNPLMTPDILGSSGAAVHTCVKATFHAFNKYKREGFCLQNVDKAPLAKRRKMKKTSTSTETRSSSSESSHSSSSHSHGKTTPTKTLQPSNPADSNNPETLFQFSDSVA

Chain of DAPK3 (O43293 whole entry): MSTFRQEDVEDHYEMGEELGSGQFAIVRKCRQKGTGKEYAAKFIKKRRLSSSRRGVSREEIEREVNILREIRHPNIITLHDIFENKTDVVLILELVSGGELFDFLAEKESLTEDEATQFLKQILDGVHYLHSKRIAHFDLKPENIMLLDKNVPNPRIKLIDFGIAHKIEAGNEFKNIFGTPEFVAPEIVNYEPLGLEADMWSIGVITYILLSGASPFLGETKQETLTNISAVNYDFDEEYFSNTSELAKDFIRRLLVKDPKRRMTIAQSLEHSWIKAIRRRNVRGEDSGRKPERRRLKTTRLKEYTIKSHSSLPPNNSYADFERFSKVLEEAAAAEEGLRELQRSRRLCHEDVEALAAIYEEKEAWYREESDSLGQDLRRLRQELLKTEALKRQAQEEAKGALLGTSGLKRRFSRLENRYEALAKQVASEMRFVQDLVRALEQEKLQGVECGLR
Chain of CAMK2D (Q13557 whole entry): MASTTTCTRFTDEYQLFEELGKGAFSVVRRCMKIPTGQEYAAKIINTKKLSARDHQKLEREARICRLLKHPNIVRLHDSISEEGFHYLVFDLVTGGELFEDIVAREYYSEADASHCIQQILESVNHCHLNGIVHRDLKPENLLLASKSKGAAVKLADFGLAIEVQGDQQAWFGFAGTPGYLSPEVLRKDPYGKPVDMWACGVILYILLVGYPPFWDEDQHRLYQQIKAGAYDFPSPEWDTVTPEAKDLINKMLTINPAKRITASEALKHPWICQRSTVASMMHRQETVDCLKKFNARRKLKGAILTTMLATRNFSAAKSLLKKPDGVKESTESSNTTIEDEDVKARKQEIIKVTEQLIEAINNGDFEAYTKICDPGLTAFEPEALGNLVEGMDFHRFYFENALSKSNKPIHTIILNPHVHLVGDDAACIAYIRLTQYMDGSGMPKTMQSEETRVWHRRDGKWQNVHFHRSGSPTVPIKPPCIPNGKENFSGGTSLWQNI
Chain of SRPK1 (Q96SB4 whole entry): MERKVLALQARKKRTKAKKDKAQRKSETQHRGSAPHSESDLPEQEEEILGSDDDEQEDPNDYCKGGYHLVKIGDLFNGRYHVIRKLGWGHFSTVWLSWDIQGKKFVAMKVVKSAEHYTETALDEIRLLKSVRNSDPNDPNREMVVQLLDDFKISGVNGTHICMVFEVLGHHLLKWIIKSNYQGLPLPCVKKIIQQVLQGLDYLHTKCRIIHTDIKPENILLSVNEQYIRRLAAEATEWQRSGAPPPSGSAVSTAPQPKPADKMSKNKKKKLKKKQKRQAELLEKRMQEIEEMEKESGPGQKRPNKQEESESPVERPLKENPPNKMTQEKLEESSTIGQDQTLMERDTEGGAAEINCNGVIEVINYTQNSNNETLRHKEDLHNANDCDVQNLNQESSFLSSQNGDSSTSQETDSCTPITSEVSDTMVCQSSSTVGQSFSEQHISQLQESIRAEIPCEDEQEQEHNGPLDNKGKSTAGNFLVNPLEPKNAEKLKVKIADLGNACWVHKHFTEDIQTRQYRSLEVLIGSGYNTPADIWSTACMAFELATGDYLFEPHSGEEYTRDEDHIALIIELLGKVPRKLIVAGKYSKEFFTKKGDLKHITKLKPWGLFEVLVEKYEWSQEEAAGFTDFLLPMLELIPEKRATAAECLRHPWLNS

ΔTm at 10 µM (TTK; read-out: 7c): 0 °C
ΔTm at 10 µM (CAMK2D; read-out: 7c): 0 °C
ΔTm at 10 µM (MST1; read-out: 7c): 1 °C
ΔTm at 10 µM (BMPR2; read-out: 7c): 0 °C
ΔTm at 10 µM (SRPK1; read-out: 7c): 3 °C
ΔTm at 10 µM (DAPK3; read-out: 7c): 14 °C
ΔTm at 10 µM (MSK1_b; read-out: 7c): 6 °C
Structure (SMILES): COc1ccc(OC(C)C)cc1Nc1cncc(-c2ccc(C(=O)O)cc2)n1 [7c]

ΔTm at 10 µM (TTK; read-out: 6c): 1 °C
ΔTm at 10 µM (CAMK2D; read-out: 6c): 3 °C
ΔTm at 10 µM (MST1; read-out: 6c): 1 °C
ΔTm at 10 µM (BMPR2; read-out: 6c): 7 °C
ΔTm at 10 µM (SRPK1; read-out: 6c): 6 °C
ΔTm at 10 µM (DAPK3; read-out: 6c): 11 °C
ΔTm at 10 µM (MSK1_b; read-out: 6c): 6 °C
Structure (SMILES): CC(C)Oc1ccc2ccn(-c3cncc(-c4ccc(C(=O)O)cc4)n3)c2c1 [6c]

ΔTm at 10 µM (TTK; read-out: 2): 1 °C
ΔTm at 10 µM (CAMK2D; read-out: 2): 3 °C
ΔTm at 10 µM (MST1; read-out: 2): 3 °C
ΔTm at 10 µM (BMPR2; read-out: 2): 6 °C
ΔTm at 10 µM (SRPK1; read-out: 2): 6 °C
ΔTm at 10 µM (DAPK3; read-out: 2): 16 °C
ΔTm at 10 µM (MSK1_b; read-out: 2): 11 °C
Structure (SMILES): CC(C)Nc1ccc2cnn(-c3cncc(-c4ccc(C(=O)O)cc4)n3)c2c1 [compound 2, 2]
